From US20060069132A1, “Azolecarboxamide herbicides” (priority 2004, published 2006)

Key:
Experiment in all cases: Test A pre-/postemergence herbicide test
redroot pigweed = assay type: in vivo, Amaranthus retroflexus
Text: (§1) Seeds of plant species selected from barnyardgrass (Echinochloa crus-galli (L.) Beauv.), downy bromegrass (Bromus tectorum L.), large crabgrass (Digitaria sanguinalis (L.) Scop.), giant foxtail (Setaria faberi Herrm.), morningglory (Ipomoea spp.), redroot pigweed (Amaranthus retroflexus L.) and velvetleaf (Abutilon theophrasti Medik.) were planted into a sandy loam soil and treated preemergence with a directed soil spray using test chemicals formulated in a non-phytotoxic solvent mixture which included a surfactant. At the same time plants selected from these species were also treated postemergence by spraying to runoff with test chemicals formulated.
(§2) Plants ranged in height from 2 to 10 cm and were in the one- to two-leaf stage for the postemergence treatment. Treated plants and untreated controls were maintained in a greenhouse for approximately ten days, after which time all treated plants were compared to untreated controls and visually evaluated for injury. Plant response ratings, summarized in Table A, are based on a 0 to 100 scale where 0 is no effect and 100 is complete control. A dash (-) response means no test results.

morningglory = assay type: in vivo, Ipomoea spp.
Text: as §1, §2

giant foxtail = assay type: in vivo, Setaria faberi
Text: as §1, §2

velvetleaf = assay type: in vivo, Abutilon theophrasti
Text: as §1, §2

barnyardgrass = assay type: in vivo, Echinochloa crus-galli
Text: as §1, §2

large crabgrass = assay type: in vivo, Digitaria sanguinalis
Text: as §1, §2

[1] = Postemergence, 125 g ai/ha, 0 to 100 scale, 0 no effect, 100 complete control
[2] = Postemergence, 500 g ai/ha, 0 to 100 scale, 0 no effect, 100 complete control
[3] = preemergence, 125 g ai/ha, visual injury, 0 to 100 scale (0 no effect, 100 complete control)
[4] = preemergence, 500 g ai/ha, visual injury, 0 to 100 scale (0 no effect, 100 complete control)
[5] = Postemergence, 2000 g ai/ha, 0 to 100 scale, 0 no effect, 100 complete control
[6] = Preemergence, 2000 g ai/ha, visual rating, 0 to 100 scale (0 no effect, 100 complete control)
[7] = Preemergence, 500 g ai/ha, visual rating, 0 to 100 scale (0 no effect, 100 complete control)

Row | SMILES | Pigweed plant response rating (redroot pigweed; [1]) | Pigweed plant response rating (redroot pigweed; [2]) | Pigweed plant response rating (redroot pigweed; [3]) | Pigweed plant response rating (redroot pigweed; [4]) | Morningglory plant response rating (morningglory; [1]) | Morningglory plant response rating (morningglory; [2]) | Morningglory plant response rating (morningglory; [3]) | Morningglory plant response rating (morningglory; [4]) | Foxtail, Giant plant response rating (giant foxtail; [1]) | Foxtail, Giant plant response rating (giant foxtail; [2]) | Foxtail, Giant plant response rating (giant foxtail; [3]) | Foxtail, Giant plant response rating (giant foxtail; [4]) | Velvetleaf plant response rating (velvetleaf; [1]) | Velvetleaf plant response rating (velvetleaf; [2]) | Velvetleaf plant response rating (velvetleaf; [3]) | Velvetleaf plant response rating (velvetleaf; [4]) | Barnyardgrass plant response rating (barnyardgrass; [2]) | Barnyardgrass plant response rating (barnyardgrass; [4]) | Crabgrass, Large plant response rating (large crabgrass; [2]) | Crabgrass, Large plant response rating (large crabgrass; [4]) | further results
1 | CCNC(=O)c1ccnc(NC(=O)c2cn(C(C)(C)C)nc2CC)c1 [Compound 452] | 20 | 70 | 10 | 65 | 20 | 30 | 0 | 10 | 10 | 25 | 5 | 45 | 20 | 30 | 0 | 5 | 35 | 70 | 20 | 45 | Barnyardgrass plant response rating (barnyardgrass; [1]): 10; Barnyardgrass plant response rating (barnyardgrass; [3]): 15; Crabgrass, Large plant response rating (large crabgrass; [1]): 10; Crabgrass, Large plant response rating (large crabgrass; [3]): 20
2 | CCOC(=O)c1ccc(F)c(NC(=O)c2nc(C(C)(C)C)nn2CC)c1 [Compound 451] | 10 | 50 | 0 | 0 | 20 | 20 | 0 | 5 | 10 | 20 | 5 | 45 | 20 | 30 | 0 | 20 | 20 | 55 | 30 | 25 | Barnyardgrass plant response rating (barnyardgrass; [1]): 10; Barnyardgrass plant response rating (barnyardgrass; [3]): 15; Crabgrass, Large plant response rating (large crabgrass; [1]): 10; Crabgrass, Large plant response rating (large crabgrass; [3]): 5
3 | CCNC(=O)c1cccc(NC(=O)c2cn(CC)nc2C(F)(F)F)c1 [Compound 172] | – | 25 | – | 0 | – | 10 | – | 0 | – | 0 | – | 0 | – | 5 | – | 0 | 0 | 0 | 0 | 0 | Plant response rating, Pigweed (redroot pigweed; [5]): 60; Pigweed plant response rating (redroot pigweed; [6]): 40; Plant response rating, Morningglory (morningglory; [5]): 10; Morningglory plant response rating (morningglory; [6]): 0; Plant response rating, Foxtail, Giant (giant foxtail; [5]): 0; Foxtail, Giant plant response rating (giant foxtail; [6]): 0; Plant response rating, Velvetleaf (velvetleaf; [5]): 15; Velvetleaf plant response rating (velvetleaf; [6]): 0; Plant response rating, Barnyardgrass (barnyardgrass; [5]): 0; Barnyardgrass plant response rating (barnyardgrass; [6]): 0; Plant response rating, Crabgrass, Large (large crabgrass; [5]): 0; Crabgrass, Large plant response rating (large crabgrass; [6]): 0
4 | Cn1nc(C(C)(C)C)cc1C(=O)Nc1cccc2c1CCCC2=NO [Compound 116] | – | 0 | – | – | – | 0 | – | – | – | 0 | – | – | – | 0 | – | – | 0 | – | 0 | – | Plant response rating, Pigweed (redroot pigweed; [5]): 0; Pigweed plant response rating (redroot pigweed; [7]): 0; Pigweed plant response rating (redroot pigweed; [6]): 0; Plant response rating, Morningglory (morningglory; [5]): 0; Morningglory plant response rating (morningglory; [7]): 0; Morningglory plant response rating (morningglory; [6]): 10; Plant response rating, Foxtail, Giant (giant foxtail; [5]): 0; Foxtail, Giant plant response rating (giant foxtail; [7]): 20; Foxtail, Giant plant response rating (giant foxtail; [6]): 35; Plant response rating, Velvetleaf (velvetleaf; [5]): 0; Velvetleaf plant response rating (velvetleaf; [7]): 0; Velvetleaf plant response rating (velvetleaf; [6]): 0; Plant response rating, Barnyardgrass (barnyardgrass; [5]): 25; Barnyardgrass plant response rating (barnyardgrass; [7]): 35; Barnyardgrass plant response rating (barnyardgrass; [6]): 70; Plant response rating, Crabgrass, Large (large crabgrass; [5]): 10; Crabgrass, Large plant response rating (large crabgrass; [7]): 45; Crabgrass, Large plant response rating (large crabgrass; [6]): 80
